Reference: publication PMC8507198 (Poultry Science, 2021)

Legend:
chicken NPSR1 [1] = test: pGL3-NFAT-RE-luciferase reporter assay; type: cell-based; conditions: 2-APB (100 μM) added 0.5 h before cNPS20 (10 nM, 6 h); CHO cells expressing cNPSR1; P<0.01 vs. peptide treatment; Figure 4D
chicken NPSR1 [2] = test: pGL3-CRE-luciferase reporter assay; type: cell-based; conditions: H89 (10 μM) added 0.5 h before cNPS20 (10 nM, 6 h); CHO cells expressing cNPSR1; P<0.01 vs. peptide treatment; Figure 4E
rodents = conditions: central administration, cited from earlier work
rats [3] = conditions: ref Smith et al., 2006; cited from earlier work
rats [4] = conditions: administration of NPS, ref Zhang et al., 2014; cited from earlier work
chickens = conditions: ref Smith et al., 2006; cited from earlier work

In the case of `NCCOB(c1ccccc1)c1ccccc1` [2-APB], the “Effect on cNPS20-induced NFAT-RE luciferase activity” value (chicken NPSR1 [1]) is reported as “could block cNPS20-induced luciferase activity of CHO cells expressing cNPSR1”.
For `O=S(=O)(NCCNC/C=C/c1ccc(Br)cc1)c1cccc2cnccc12` [H89], the “Effect on cNPS20-induced CRE luciferase activity” value (chicken NPSR1 [2]) was “significantly inhibited”.
In the case of “neuropeptide S (SFRNGVGSGIKKTSFRRAKS; printed: Ser-Phe-Arg-Asn-Gly- Val-Gly-Ser-Gly-Ile-Lys-Lys-Thr-Ser-Phe-Arg-Arg-Ala-Lys-Ser) [NPS]”, the “Length of ketamine-induced anesthesia” value (rodents; ref Kushikata et al., 2011) is listed as “decreased the length of ketamine-induced anesthesia”, the Memory (rodents; ref Okamura et al., 2011) is listed as “enhanced memory” and the Anxiety-related effect (rodents; ref Xu et al., 2004) is listed as “anxiolytic effects”. The “ACTH and corticosterone secretion (hypothalamic-pituitary-adrenal axis activity)” value (rats [3]) was “stimulation of adrenocorticotropic hormone (ACTH) and corticosterone secretion in rats”, the “Hypothalamus-pituitary-adrenal axis and food intake, rats” value (rats [3]) was “stimulate the hypothalamus-pituitary-adrenal axis and inhibit food intake in rats and chickens” and the “Anxiolytic and antinociceptive effects” value (rats [4]) was “anxiolytic, and antinociceptive effects in rats”. The “Hypothalamus-pituitary-adrenal axis and food intake, chickens” value (chickens) was “stimulate the hypothalamus-pituitary-adrenal axis and inhibit food intake in rats and chickens”.
